Literature values as cited in patent US20110257198A1, “PIPERIDINE DERIVATIVES USEFUL AS OREXIN ANTAGONISTS” (priority 2008, published 2011).
Ends that are not written are not given here.

Experiments:
rats [1] = conditions: rats (White et al 2005)
rats [2] = conditions: rats (Nair et al 2008)
freely-feeding rats = conditions: central administration, 4 hour time period
rat = conditions: central administration at the onset of the normal sleep period (Hagan et al 1999)

Row | Molecule | effect on hedonic eating (rats [1]) | effect on high-fat pellet self-administration (rats [2]) | increase of food intake over control rats receiving vehicle (freely-feeding rats) | effect on arousal (rat)
1 | Cc1nc2ccc(NC(=O)Nc3ccnc4cccnc34)cc2o1 [SB334867] | potently reduced hedonic eating | attenuated high-fat pellet self-administration |  | 
2 | orexin-A: polypeptide ligand for the orexin-1 receptor; an agonist of the orexin receptors (QPLPDCCRQKTCSCRLYELLHGAGNHAAGILTL; ends and bridges not checked; cysteine pairing not given here; UniProt O43612 34-66, looked up) |  |  | approximately four-fold | dose-related increase in arousal
